Measured values from patent US8729048B2, “Methods and materials for assessing responsiveness to PARP inhibitors and platinating agents” (Mayo Foundation for Medical Education and Research, priority 2011, dated 2014).
“Also recorded” adds a separate entry of the source.

How the values were obtained:
Type in all cases: cell-based
[1] = tested on: NHEJ activity in PEO1 cells; test: NHEJ end-joining reporter assay, PEO1; settings: 72 hours
Source text: FIG. 3. Error-prone NHEJ activity is enhanced by PARP inhibitors in PEO1 cells. (A) Schematic of the in vivo NHEJ assay. Pem1-Ad2-EGFP is an EGFP-containing vector with a 2.4 kb intron (Pem1) and one exon (Ad2) inserted into the EGFP cassette. Pem1-Ad2-EGFP was cut with either HindIII or I-SceI to produce linearized substrate with compatible overhangs or incompatible inverted overhangs, respectively. Successfully recircularized plasmid will produce intact EGFP, which can be assayed via flow cytometry. Any residual uncut plasmid, due to the insertion of the Ad2 exon within the EGFP open reading frame, will be EGFP negative. A pCherry plasmid was co-transfected with substrate to correct for transfection efficiency. (B) and (C) Quantitation of NHEJ activity in PEO1 and PEO4 cells transfected with HindIII substrate (B) or I-SceI substrate (C) and exposed to ABT-888 for 72 hours. Each data point represents the mean±SEM from 3 independent experiments.
The end-joining reporter plasmid pEGFP-Pem1-Ad2 described elsewhere (Wang et al., Nucleic Acids Res., 34:6170-6182 (2006); Seluanov et al., Proc. Natl. Acad. Sci. USA, 101:7624-7629 (2004); and Fattah et al., PLoS Genet., 6:e1000855 (2010); see also (FIG. 3A)) was provided by E. Hendrickson (University of Minnesota, Minneapolis, Minn.) and was digested with either HindIII or I-SceI for 12 hours, and gel purified using a Qiagen gel extraction kit. […]

[2] = tested on: ATM-deficient GM16666 fibroblasts; test: Clonogenic assay, GM16666; settings: GM16666 cells versus ATM-reconstituted GM16667, 48 hours
Method: (§1) FIG. 6. […] (A) BRCA1-deficient HCC1937 and BRCA1-reconstituted HCC1937/BRCA1 cells were continuously exposed to ABT-888 in the presence or absence of 125 nM DNA-PKi and assayed for clonogenic survival. Inset, Western blots of cell lysates from HCC1937 and HCC1937/BRCA1. (B) Western blots of M059J and reconstituted M059J+DNA-PKcs lines showing the restoration of DNA-PK expression and the shRNA-mediated knockdown of BRCA1. (C) Clonogenic survival of shRNA transfected M059J/M059J+DNA-PKcs lines treated with ABT-888 for 72 hours. (D) Clonogenic survival of ATM-deficient GM16666 or ATM-reconstituted GM16667 fibroblasts. Cells were exposed to ABT-888 for 48 hours in the presence or absence of 250 nM DNA-PKi, washed, and allowed to form colonies. Inset, Western blots of lysates from GM16666 and GM16667 fibroblasts. […] Results are representative of 3 independent experiments.
(§2) Colony formation assays were performed on siRNA-transfected PEO1 and PEO4 cells 48 hours after the second transfection. Cells were trypsinized and plated at 750 cells/plate in triplicate 60-mm dishes containing medium A, allowed to grow 10-14 days, and stained with Coomassie Brilliant Blue. Colonies containing ≧50 cells were scored manually. […]

[3] = tested on: parental M059J cells lacking DNA-PKcs; test: Clonogenic assay, M059J; settings: BRCA1 shRNA
Method: as §1
All siRNA oligonucleotides were purchased from Ambion, Inc. (Austin, Tex.). Sequences, with references, are provided below. PEO1 and PEO4 cells were transfected with 150 picomoles of siRNA using the HiPerfect lipid transfection reagent (Qiagen; Valencia, Calif.). […]
Colony formation assays were performed on siRNA-transfected PEO1 and PEO4 cells 48 hours after the second transfection. […] Colonies containing ≧50 cells were scored manually. […]

[4] = tested on: BRCA1-deficient HCC1937 cells; test: Clonogenic assay, HCC1937; settings: continuous exposure, 125 nM DNA-PKi
Method: as §1, §2

| Structure (SMILES) | end-joining of I-SceI-linearized substrate ([1]; PEO1 cells compared to PEO4 cells) | end-joining of HindIII-linearized substrate ([1]; PEO1 cells) | clonogenic sensitivity [2] | clonogenic sensitivity to ABT-888 after BRCA1 knockdown [3] | effect on ABT-888 sensitivity (clonogenic survival) [4] |
| --- | --- | --- | --- | --- | --- |
| C[C@]1(c2nc3c(C(N)=O)cccc3[nH]2)CCCN1 [ABT-888] | significantly increased; also recorded: pronounced increase in end-joining | little effect; also recorded: small increase in end-joining | heightened sensitivity | not sensitized | – |
| CCN1CCN(CC(=O)Nc2ccc(-c3cccc4c(=O)cc(N5CCOCC5)oc34)c3sc4ccccc4c23)CC1 [AZ 12594248] | – | – | – | – | diminished ABT-888 sensitivity |
